The source of these data is patent US20190022117A1, “COMBINATION THERAPY” (NuCana plc, priority 2015, published 2019).

SMILES strings stand for the structures. Read-outs that look alike come from different tables or passages of the source.

Holding throughout (assay): CellTiter-Glo cytotoxicity assay, single agents (Stage 1)
What all share (format): cell-based
(In general: ATP-based viability assays read luminescence as a measure of living cells.)

One assay relates to OVCAR-3. To be noted: CTG assay 72 h; for IC50: Homo sapiens. As for the experimental part: (§1) A2780, SK-OV-3, OVCAR-3, NCI-H460, NCI-H1975, NCI-H2122, 5637 and HT1376 were cultured in RPMI Medium 1640 (Invitrogen-22400105) supplemented with 10% fetal bovine serum (FBS; Invitrogen-10099141). All the cell lines were maintained in a humidified incubator at 37° C. with 5% CO2. Cell culture media and supplements were purchased from Invitrogen, and tissue culture flasks were purchased from Corning, 96-well plates and 384-well plates were purchased from Greiner. CellTiter-Glo Luminescent Cell Viability Assay kits were purchased from Promega (Promega-G7573), cells counter Vi-Cell was purchased from Beckman, detection instrument Envision was purchased from PerkinElmer.
(§2) Paclitaxcel (used as a reference) and cisplatin were purchased from SELLECK, and they were of highest purity available. All compounds attained solubility in DMSO and when diluted into culture media. DMSO, compounds solutions and culture media were warmed to 37° C. for the solution preparation and dilutions.
(§3) Eight cell lines were allowed to adhere to 96-well plates overnight (100 μL/well), for drug treatments with 3.16 fold dilution, 9 dose points, triplicates or vehicle control, compound stock solutions were prepared in DMSO and added to the wells to give the indicated final drug concentrations. Final DMSO concentration was 0.5%. Cellular ATP concentrations were assessed by using the CellTiter-Glo Cell Viability Assay as per the manufacturer's instructions 72 h after drug addition.
(§4) In Stage 1 the IC50 (using 5 or more concentrations) of each individual compound (cisplatin, gemcitabine and NUC-1031) in the relevant cell lines was determined.

A further assay concerns HT1376. To be noted: for IC50: Homo sapiens, HT-1376, CTG assay 72 h. How it is done:
as §1, §2, §3, §4

The test system of a further assay is A2780. To be noted: CTG assay 72 h; for IC50: Homo sapiens. How it is done: as §1, §2, §3, §4
A further assay concerns NCI-H1975. To be noted: CTG assay 72 h; for IC50: Homo sapiens. As for the experimental part: as §1, §2, §3, §4
The next assay concerns 5637. To be noted: CTG assay 72 h. How it is done: as §1, §2, §3, §4
Setting [1] is: absolute IC50, read-out: Ab IC50.

Broadly, the IC50 is the concentration at which inhibition is half-maximal. For the compound `C[C@H](NP(=O)(OC[C@H]1O[C@@H](n2ccc(N)nc2=O)C(F)(F)[C@H]1O)Oc1ccccc1)C(=O)OCc1ccccc1` (stereo partly drawn) [NUC-1031, 2′-Deoxy-2′,2′-difluoro-D-cytidine-5′-O-[phenyl (benzoxy-L-alaninyl)] phosphate], the “Max Inhibition_%” value in the assay with OVCAR-3 is listed as 11.76%; in the assay with HT1376 (CTG assay 72 h) it was −2.54%; in the assay on A2780 it was 79.15%; with NCI-H1975, 37.91%; with 5637 it was 77.88%. The IC50 with OVCAR-3 (setting [1]) was above 1980 nM; in the assay with OVCAR-3 (relative IC50, read-out: IC50), 200 nM; in the assay with HT1376 (setting [1]), above 1980 nM; with HT1376 (relative IC50, read-out: IC50), above 1980 nM; with A2780 (setting [1]), 25 nM; in the assay with A2780 (relative IC50, read-out: IC50) it was 16 nM. Moreover, the IC50 in the assay on NCI-H1975 (setting [1]) is above 1980 nM; in the assay with NCI-H1975 (relative IC50, read-out: IC50), 370 nM; in the assay on 5637 (setting [1]), 200 nM; with 5637 (relative IC50, read-out: IC50), 120 nM.
